Measured values from the CheMixHub viscosity set.
Values joined by “and” are separate entries in the source; they are usually repeats but may differ in a detail not shown here. Equal values may be shown once.

Experiment: xn = mol fraction of the nth substance listed

CCCCOCCO + O
Conditions	viscosity
293.15 K, 101 kPa, x1 = 0.00631	1.166 mPa·s
293.15 K, 101 kPa, x1 = 0.0131	1.391 mPa·s
293.15 K, 101 kPa, x1 = 0.01666	1.507 mPa·s
293.15 K, 101 kPa, x1 = 0.03452	2.102 mPa·s
294.15 K, 101 kPa, x1 = 0.00631	1.136 mPa·s
294.15 K, 101 kPa, x1 = 0.0131	1.352 mPa·s
295.15 K, 101 kPa, x1 = 0.00631	1.106 mPa·s
295.15 K, 101 kPa, x1 = 0.0131	1.315 mPa·s
295.15 K, 101 kPa, x1 = 0.01666	1.421 mPa·s
295.15 K, 101 kPa, x1 = 0.03452	1.979 mPa·s
296.15 K, 101 kPa, x1 = 0.00631	1.079 mPa·s
296.15 K, 101 kPa, x1 = 0.0131	1.279 mPa·s
297.15 K, 101 kPa, x1 = 0.00631	1.052 mPa·s
297.15 K, 101 kPa, x1 = 0.0131	1.245 mPa·s
297.15 K, 101 kPa, x1 = 0.01666	1.342 mPa·s
297.15 K, 101 kPa, x1 = 0.03452	1.868 mPa·s
298.15 K, 101 kPa, x1 = 0.00631	1.026 mPa·s
298.15 K, 101 kPa, x1 = 0.0131	1.212 mPa·s
299.15 K, 101 kPa, x1 = 0.00631	1.001 mPa·s
299.15 K, 101 kPa, x1 = 0.0131	1.18 mPa·s
299.15 K, 101 kPa, x1 = 0.01666	1.271 mPa·s
299.15 K, 101 kPa, x1 = 0.03452	1.766 mPa·s
300.15 K, 101 kPa, x1 = 0.00631	0.9782 mPa·s
300.15 K, 101 kPa, x1 = 0.0131	1.15 mPa·s
301.15 K, 101 kPa, x1 = 0.00631	0.9547 mPa·s
301.15 K, 101 kPa, x1 = 0.0131	1.121 mPa·s
301.15 K, 101 kPa, x1 = 0.01666	1.205 mPa·s
301.15 K, 101 kPa, x1 = 0.03452	1.675 mPa·s
302.15 K, 101 kPa, x1 = 0.00631	0.9328 mPa·s
302.15 K, 101 kPa, x1 = 0.0131	1.092 mPa·s
303.15 K, 101 kPa, x1 = 0.00631	0.9113 mPa·s
303.15 K, 101 kPa, x1 = 0.0131	1.066 mPa·s
303.15 K, 101 kPa, x1 = 0.01666	1.144 mPa·s
303.15 K, 101 kPa, x1 = 0.03452	1.592 mPa·s
304.15 K, 101 kPa, x1 = 0.00631	0.891 mPa·s
304.15 K, 101 kPa, x1 = 0.0131	1.04 mPa·s
305.15 K, 101 kPa, x1 = 0.00631	0.8711 mPa·s
305.15 K, 101 kPa, x1 = 0.0131	1.015 mPa·s
305.15 K, 101 kPa, x1 = 0.01666	1.089 mPa·s
305.15 K, 101 kPa, x1 = 0.03452	1.515 mPa·s
306.15 K, 101 kPa, x1 = 0.00631	0.8521 mPa·s
306.15 K, 101 kPa, x1 = 0.0131	0.9916 mPa·s
307.15 K, 101 kPa, x1 = 0.00631	0.8342 mPa·s
307.15 K, 101 kPa, x1 = 0.0131	0.9686 mPa·s
307.15 K, 101 kPa, x1 = 0.01666	1.038 mPa·s
307.15 K, 101 kPa, x1 = 0.03452	1.445 mPa·s
308.15 K, 101 kPa, x1 = 0.00631	0.8158 mPa·s
308.15 K, 101 kPa, x1 = 0.0131	0.9465 mPa·s
308.15 K, 101 kPa, x1 = 0.037	1.465 mPa·s and 1.465 mPa·s
308.15 K, 101.33 kPa, x2 = 0.3047	2.388 mPa·s
308.15 K, 101.33 kPa, x2 = 0.4017	2.477 mPa·s
308.15 K, 101.33 kPa, x2 = 0.4974	2.624 mPa·s
308.15 K, 101.33 kPa, x2 = 0.5973	2.835 mPa·s
308.15 K, 101.33 kPa, x2 = 0.697	2.955 mPa·s
308.15 K, 101.33 kPa, x2 = 0.8047	2.873 mPa·s
308.15 K, 101.33 kPa, x2 = 0.8972	2.245 mPa·s
308.15 K, 101.33 kPa, x2 = 0.9497	1.576 mPa·s
309.15 K, 101 kPa, x1 = 0.00631	0.799 mPa·s
309.15 K, 101 kPa, x1 = 0.0131	0.9251 mPa·s
309.15 K, 101 kPa, x1 = 0.01666	0.9913 mPa·s
309.15 K, 101 kPa, x1 = 0.03452	1.381 mPa·s
310.15 K, 101 kPa, x1 = 0.00631	0.7823 mPa·s
310.15 K, 101 kPa, x1 = 0.0131	0.9045 mPa·s
311.15 K, 101 kPa, x1 = 0.00631	0.7663 mPa·s
311.15 K, 101 kPa, x1 = 0.0131	0.8847 mPa·s
311.15 K, 101 kPa, x1 = 0.01666	0.9476 mPa·s
311.15 K, 101 kPa, x1 = 0.03452	1.322 mPa·s
312.15 K, 101 kPa, x1 = 0.00631	0.7507 mPa·s
312.15 K, 101 kPa, x1 = 0.0131	0.8657 mPa·s
313.15 K, 101 kPa, x1 = 0.00631	0.7357 mPa·s
313.15 K, 101 kPa, x1 = 0.0131	0.8474 mPa·s
313.15 K, 101 kPa, x1 = 0.01666	0.907 mPa·s
313.15 K, 101 kPa, x1 = 0.03452	1.268 mPa·s
313.15 K, 101 kPa, x1 = 0.6	2.465 mPa·s
314.15 K, 101 kPa, x1 = 0.00631	0.7211 mPa·s
314.15 K, 101 kPa, x1 = 0.0131	0.8294 mPa·s
315.15 K, 101 kPa, x1 = 0.00631	0.7073 mPa·s
315.15 K, 101 kPa, x1 = 0.0131	0.8121 mPa·s
315.15 K, 101 kPa, x1 = 0.01666	0.8696 mPa·s
315.15 K, 101 kPa, x1 = 0.03452	1.218 mPa·s
316.15 K, 101 kPa, x1 = 0.00631	0.6935 mPa·s
316.15 K, 101 kPa, x1 = 0.0131	0.7957 mPa·s
317.15 K, 101 kPa, x1 = 0.00631	0.6799 mPa·s
317.15 K, 101 kPa, x1 = 0.0131	0.7795 mPa·s
317.15 K, 101 kPa, x1 = 0.01666	0.8346 mPa·s
317.15 K, 101 kPa, x1 = 0.03452	1.173 mPa·s
318.15 K, 101 kPa, x1 = 0.00631	0.6676 mPa·s
318.15 K, 101 kPa, x1 = 0.0131	0.764 mPa·s
318.15 K, 101 kPa, x1 = 0.03452	1.151 mPa·s
319.15 K, 101 kPa, x1 = 0.00631	0.6552 mPa·s
319.15 K, 101 kPa, x1 = 0.0131	0.7487 mPa·s
319.15 K, 101 kPa, x1 = 0.01666	0.8021 mPa·s
319.15 K, 101 kPa, x1 = 0.03452	1.131 mPa·s
320.15 K, 101 kPa, x1 = 0.00631	0.6431 mPa·s
320.15 K, 101 kPa, x1 = 0.0131	0.7347 mPa·s
320.15 K, 101 kPa, x1 = 0.03452	1.113 mPa·s
320.65 K, 101 kPa, x1 = 0.03452	1.104 mPa·s
321.15 K, 101 kPa, x1 = 0.00631	0.6313 mPa·s
321.15 K, 101 kPa, x1 = 0.0131	0.7202 mPa·s
321.15 K, 101 kPa, x1 = 0.01666	0.7716 mPa·s
321.15 K, 101 kPa, x1 = 0.03452	1.096 mPa·s
321.65 K, 101 kPa, x1 = 0.03452	1.088 mPa·s
322.15 K, 101 kPa, x1 = 0.00631	0.6205 mPa·s
322.15 K, 101 kPa, x1 = 0.0131	0.7065 mPa·s
323.15 K, 101 kPa, x1 = 0.00631	0.6094 mPa·s
323.15 K, 101 kPa, x1 = 0.0131	0.6934 mPa·s
323.15 K, 101 kPa, x1 = 0.01666	0.743 mPa·s
